Measured values as given in ChEMBL document CHEMBL5291721, “A preclinical secondary pharmacology resource illuminates target-adverse drug reaction associations of marketed drugs” (Nat Commun, 2023).
“And” between values parts separate entries of the source, which are not always exact repeats. Equal values may be shown once.

How the values were obtained:
[1] = target: T1, Neuropeptide Y receptor type 1 (Homo sapiens, UniProt P25929); details: read-out: AC50
T1 sequence (P25929 whole entry): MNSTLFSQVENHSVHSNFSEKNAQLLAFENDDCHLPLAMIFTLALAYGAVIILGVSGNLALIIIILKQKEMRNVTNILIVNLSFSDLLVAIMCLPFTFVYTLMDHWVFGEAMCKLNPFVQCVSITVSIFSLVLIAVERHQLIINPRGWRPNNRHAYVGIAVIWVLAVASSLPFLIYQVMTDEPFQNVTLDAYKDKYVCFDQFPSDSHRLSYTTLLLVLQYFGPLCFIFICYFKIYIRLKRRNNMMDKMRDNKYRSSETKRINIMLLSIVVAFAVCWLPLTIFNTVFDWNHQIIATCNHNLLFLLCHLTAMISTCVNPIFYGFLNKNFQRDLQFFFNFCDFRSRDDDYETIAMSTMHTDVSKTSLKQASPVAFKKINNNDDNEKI

[2] = target: cGMP-inhibited 3',5'-cyclic phosphodiesterase 3A (Homo sapiens, UniProt Q14432); type: functional
Chain of cGMP-inhibited 3',5'-cyclic phosphodiesterase 3A (Q14432 whole entry): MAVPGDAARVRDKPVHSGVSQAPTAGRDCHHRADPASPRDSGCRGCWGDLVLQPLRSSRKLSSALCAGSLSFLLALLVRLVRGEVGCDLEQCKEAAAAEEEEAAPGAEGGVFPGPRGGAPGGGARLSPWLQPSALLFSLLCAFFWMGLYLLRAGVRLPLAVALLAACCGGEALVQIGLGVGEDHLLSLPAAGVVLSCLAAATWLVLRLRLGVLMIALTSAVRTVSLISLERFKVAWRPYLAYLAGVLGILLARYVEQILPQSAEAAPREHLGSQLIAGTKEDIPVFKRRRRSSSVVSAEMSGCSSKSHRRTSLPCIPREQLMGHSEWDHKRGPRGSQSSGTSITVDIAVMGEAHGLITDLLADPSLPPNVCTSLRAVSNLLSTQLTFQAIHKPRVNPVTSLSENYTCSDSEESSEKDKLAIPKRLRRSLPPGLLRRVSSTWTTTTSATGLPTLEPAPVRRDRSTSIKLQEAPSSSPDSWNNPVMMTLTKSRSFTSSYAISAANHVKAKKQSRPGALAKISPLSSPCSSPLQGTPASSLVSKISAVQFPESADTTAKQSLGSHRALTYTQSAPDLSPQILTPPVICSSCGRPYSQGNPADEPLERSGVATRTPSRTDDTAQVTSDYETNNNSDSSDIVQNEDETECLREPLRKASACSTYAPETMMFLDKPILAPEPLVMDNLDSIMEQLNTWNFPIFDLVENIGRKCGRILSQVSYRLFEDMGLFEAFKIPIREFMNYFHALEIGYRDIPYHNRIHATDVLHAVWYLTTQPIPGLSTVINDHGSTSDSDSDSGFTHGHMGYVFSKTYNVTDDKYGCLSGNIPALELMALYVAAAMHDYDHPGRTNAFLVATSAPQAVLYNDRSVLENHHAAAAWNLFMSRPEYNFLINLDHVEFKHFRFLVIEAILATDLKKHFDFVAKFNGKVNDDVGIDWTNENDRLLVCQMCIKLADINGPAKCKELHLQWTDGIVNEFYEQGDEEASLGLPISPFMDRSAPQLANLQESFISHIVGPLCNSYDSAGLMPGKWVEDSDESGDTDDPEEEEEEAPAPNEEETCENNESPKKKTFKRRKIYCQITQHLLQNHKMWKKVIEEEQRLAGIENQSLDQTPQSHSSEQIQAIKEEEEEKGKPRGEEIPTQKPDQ

[3] = target: Voltage-gated inwardly rectifying potassium channel KCNH2 (Homo sapiens, UniProt Q12809); type: functional
Chain of Voltage-gated inwardly rectifying potassium channel KCNH2 (Q12809 whole entry): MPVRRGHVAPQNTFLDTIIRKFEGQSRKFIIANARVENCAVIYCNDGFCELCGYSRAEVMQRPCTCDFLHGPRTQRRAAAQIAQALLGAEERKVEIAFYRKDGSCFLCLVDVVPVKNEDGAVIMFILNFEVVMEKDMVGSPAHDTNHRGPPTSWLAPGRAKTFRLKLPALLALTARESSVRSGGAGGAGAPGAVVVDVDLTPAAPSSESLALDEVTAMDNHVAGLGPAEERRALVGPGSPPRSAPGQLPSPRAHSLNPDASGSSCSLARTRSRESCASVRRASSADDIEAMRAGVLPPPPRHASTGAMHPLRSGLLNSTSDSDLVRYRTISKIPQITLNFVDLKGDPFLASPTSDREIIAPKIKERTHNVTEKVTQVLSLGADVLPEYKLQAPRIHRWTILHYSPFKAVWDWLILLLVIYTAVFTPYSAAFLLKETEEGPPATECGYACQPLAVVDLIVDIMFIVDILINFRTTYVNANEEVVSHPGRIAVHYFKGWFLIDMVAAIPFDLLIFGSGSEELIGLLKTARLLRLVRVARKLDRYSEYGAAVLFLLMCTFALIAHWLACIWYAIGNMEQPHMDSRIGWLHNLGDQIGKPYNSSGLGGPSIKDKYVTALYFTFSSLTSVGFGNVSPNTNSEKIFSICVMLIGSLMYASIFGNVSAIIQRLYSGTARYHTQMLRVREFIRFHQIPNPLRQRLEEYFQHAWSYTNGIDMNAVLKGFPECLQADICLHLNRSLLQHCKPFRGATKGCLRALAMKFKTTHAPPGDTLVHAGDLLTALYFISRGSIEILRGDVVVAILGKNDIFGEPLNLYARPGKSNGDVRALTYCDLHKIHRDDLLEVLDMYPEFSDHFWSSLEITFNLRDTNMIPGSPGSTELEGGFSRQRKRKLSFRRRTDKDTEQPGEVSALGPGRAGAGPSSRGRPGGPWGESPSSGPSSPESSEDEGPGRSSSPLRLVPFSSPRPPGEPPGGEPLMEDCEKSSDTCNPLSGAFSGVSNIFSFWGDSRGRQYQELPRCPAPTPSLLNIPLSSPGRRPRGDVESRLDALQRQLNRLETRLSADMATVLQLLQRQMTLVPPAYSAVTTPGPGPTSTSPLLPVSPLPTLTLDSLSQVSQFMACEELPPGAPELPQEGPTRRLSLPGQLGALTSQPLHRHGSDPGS

Adenosine receptor A2a = Adenosine receptor A2a (Homo sapiens, UniProt P29274)
Chain of Adenosine receptor A2a (P29274 whole entry): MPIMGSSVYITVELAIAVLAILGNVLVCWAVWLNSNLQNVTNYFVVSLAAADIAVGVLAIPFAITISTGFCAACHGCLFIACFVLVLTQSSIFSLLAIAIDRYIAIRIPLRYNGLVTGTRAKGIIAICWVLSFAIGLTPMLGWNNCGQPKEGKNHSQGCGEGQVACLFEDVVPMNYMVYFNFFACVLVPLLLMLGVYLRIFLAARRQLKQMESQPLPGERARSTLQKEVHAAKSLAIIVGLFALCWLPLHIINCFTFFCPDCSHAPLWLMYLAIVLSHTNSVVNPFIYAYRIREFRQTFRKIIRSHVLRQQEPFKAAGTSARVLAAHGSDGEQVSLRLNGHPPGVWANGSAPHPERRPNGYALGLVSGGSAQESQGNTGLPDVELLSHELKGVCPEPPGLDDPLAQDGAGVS

[4] = target: T2, 5-hydroxytryptamine receptor 3A (Homo sapiens, UniProt P46098); type: functional
T2 sequence (P46098 whole entry): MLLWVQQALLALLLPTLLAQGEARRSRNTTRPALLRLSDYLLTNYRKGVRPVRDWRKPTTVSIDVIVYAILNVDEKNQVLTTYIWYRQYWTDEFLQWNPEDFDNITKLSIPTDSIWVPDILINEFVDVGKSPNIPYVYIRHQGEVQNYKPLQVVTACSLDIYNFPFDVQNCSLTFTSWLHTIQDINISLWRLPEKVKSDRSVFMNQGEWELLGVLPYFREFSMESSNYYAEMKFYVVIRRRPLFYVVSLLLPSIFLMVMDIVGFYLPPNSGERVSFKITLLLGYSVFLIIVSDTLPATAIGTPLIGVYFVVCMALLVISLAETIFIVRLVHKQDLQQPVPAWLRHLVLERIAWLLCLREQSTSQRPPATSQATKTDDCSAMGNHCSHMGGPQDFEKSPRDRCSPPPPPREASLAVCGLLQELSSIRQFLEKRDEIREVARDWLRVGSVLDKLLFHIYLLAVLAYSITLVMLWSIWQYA

[5] = target: Glutamate receptor ionotropic, NMDA 1 (Rattus norvegicus, UniProt P35439)
[6] = target: Delta-type opioid receptor (Homo sapiens, UniProt P41143)
Chain of Delta-type opioid receptor (P41143 whole entry): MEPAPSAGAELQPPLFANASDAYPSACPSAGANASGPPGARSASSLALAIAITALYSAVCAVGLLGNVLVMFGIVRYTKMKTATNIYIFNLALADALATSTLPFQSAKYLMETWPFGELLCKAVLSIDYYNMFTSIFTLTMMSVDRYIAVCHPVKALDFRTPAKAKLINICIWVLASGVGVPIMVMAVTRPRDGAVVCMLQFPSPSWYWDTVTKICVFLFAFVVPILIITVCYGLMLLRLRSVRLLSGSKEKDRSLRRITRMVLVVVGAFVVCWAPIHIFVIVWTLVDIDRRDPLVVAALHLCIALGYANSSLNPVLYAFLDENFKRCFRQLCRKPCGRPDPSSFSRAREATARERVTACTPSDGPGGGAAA

[7] = target: T3, 5-hydroxytryptamine receptor 2C (Homo sapiens, UniProt P28335)
T3 sequence (P28335 whole entry): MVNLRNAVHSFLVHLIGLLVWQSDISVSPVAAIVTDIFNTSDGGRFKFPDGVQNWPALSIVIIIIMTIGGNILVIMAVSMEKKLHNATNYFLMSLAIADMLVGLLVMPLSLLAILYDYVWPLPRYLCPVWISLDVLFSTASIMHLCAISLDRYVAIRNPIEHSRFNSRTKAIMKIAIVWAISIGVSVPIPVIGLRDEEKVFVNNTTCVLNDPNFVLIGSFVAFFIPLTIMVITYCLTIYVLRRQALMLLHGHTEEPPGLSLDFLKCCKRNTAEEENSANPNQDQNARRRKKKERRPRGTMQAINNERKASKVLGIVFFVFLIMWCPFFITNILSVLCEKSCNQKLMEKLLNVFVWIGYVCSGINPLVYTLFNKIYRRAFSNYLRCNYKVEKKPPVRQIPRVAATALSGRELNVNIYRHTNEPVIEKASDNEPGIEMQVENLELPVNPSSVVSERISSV

[8] = target: T4, Alpha-2C adrenergic receptor (Homo sapiens, UniProt P18825); type: functional
T4 sequence (P18825 whole entry): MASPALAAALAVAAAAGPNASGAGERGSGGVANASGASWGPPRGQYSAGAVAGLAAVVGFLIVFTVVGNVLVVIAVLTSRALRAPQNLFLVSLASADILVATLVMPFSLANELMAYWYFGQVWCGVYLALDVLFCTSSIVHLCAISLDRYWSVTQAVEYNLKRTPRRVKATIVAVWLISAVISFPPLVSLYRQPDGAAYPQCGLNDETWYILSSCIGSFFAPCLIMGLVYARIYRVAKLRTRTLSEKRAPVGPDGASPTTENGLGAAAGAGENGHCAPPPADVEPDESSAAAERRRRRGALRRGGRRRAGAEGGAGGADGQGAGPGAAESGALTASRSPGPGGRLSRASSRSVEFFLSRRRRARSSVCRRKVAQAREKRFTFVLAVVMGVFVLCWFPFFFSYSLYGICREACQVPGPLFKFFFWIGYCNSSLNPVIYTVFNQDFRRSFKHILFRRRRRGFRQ

B2 bradykinin receptor = target: T5, B2 bradykinin receptor (Homo sapiens, UniProt P30411)
T5 sequence (P30411 whole entry): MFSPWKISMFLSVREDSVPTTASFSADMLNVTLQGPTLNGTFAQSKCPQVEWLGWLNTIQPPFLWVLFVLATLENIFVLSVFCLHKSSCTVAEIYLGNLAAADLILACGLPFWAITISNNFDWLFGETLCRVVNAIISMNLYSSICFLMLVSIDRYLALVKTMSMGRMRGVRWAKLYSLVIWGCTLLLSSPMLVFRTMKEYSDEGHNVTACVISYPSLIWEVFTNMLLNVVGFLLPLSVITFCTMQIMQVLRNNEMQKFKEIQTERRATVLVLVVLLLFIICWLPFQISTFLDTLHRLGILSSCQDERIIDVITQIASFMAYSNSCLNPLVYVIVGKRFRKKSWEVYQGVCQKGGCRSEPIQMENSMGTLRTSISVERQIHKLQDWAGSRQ
Note: assay procedure not described here.

## CC1(C)S[C@@H]2[C@H](NC(=O)[C@H](N)c3ccccc3)C(=O)N2[C@H]1C(=O)OCOC(=O)[C@@H]1N2C(=O)C[C@H]2S(=O)(=O)C1(C)C [SULTAMICILLIN]
[1]
  AC50: > 30 µM
[2]
  AC50: > 30 µM
[3]
  AC50: > 30 µM
Adenosine receptor A2a
  AC50: > 30 µM
[4]
  AC50: > 30 µM
[5]
  AC50: > 30 µM
[6]
  AC50: > 30 µM
[7]
  AC50: > 30 µM
[8]
  AC50: > 30 µM
B2 bradykinin receptor
  AC50: > 30 µM

## C[C@H](Cc1ccc(O)c(O)c1)[C@@H](C)Cc1ccc(O)c(O)c1 [MASOPROCOL]
[1]
  AC50: > 10 µM
[2]
  AC50: 12 µM and 23 µM and 19 µM
[3]
  AC50: > 30 µM
Adenosine receptor A2a
  AC50: > 30 µM
[4]
  AC50: > 30 µM
[5]
  AC50: > 10 µM
[6]
  AC50: > 30 µM
[7]
  AC50: > 30 µM
[8]
  AC50: > 30 µM
B2 bradykinin receptor
  AC50: > 10 µM
